This is an account of results in ChEMBL document CHEMBL4130586, “Antiprotozoal Sesquiterpene Lactones and Other Constituents from Tarchonanthus camphoratus and Schkuhria pinnata” (J Nat Prod, 2018).

pIC50: −log10 of the molar value.

One series relates to L6. In words: Cytotoxicity against rat L6 cells after 72 hrs by alamar blue staining based fluorescence assay. Type of series: cell-based. As to conditions: L6, 72 h. Background: The colour change of resazurin is a common sign of viable cells or microbes.
Consider `C=C1C(=O)O[C@@H]2/C=C(/C)[C@@H]3C/C=C(/C[C@@H](OC(=O)/C(=C/CO)CO)[C@@H]12)C[C@@](O)(C(C)C)C(=O)O3`, for which the pIC50 (as a rule, the IC50 on a negative log10 scale, so that one unit is a factor of ten) is 5.42.

On to `C=C1C(=O)O[C@@H]2/C=C(/C)[C@@H](OC(C)=O)C/C=C(\C)C[C@@H](OC(=O)c3ccoc3)[C@@H]12`, for which the pIC50 is 5.68.

Take `C=C1C(=O)O[C@@H]2/C=C(/C)[C@@H](O)C[C@H]3O[C@]3(C)C[C@@H](OC(=O)/C(=C/COC(=O)C(O)C(C)C)CO)[C@@H]12` (stereo not given in full): the pIC50 is 4.84.

In turn, `C=C1C(=O)O[C@@H]2/C=C(/C)[C@@H](OC(C)=O)C[C@H]3O[C@]3(C)C[C@@H](OC(=O)/C(=C/CO)CO)[C@@H]12` had a pIC50 of 4.84.

In turn, `C=C1C(=O)O[C@@H]2/C=C(/C)[C@@H](OC(C)=O)C/C=C(\C)C[C@@H](OC(=O)C3=CC(O)OC3)[C@@H]12` (stereo not given in full) had a pIC50 of 5.39. This pIC50 lies 0.55 log units higher than the previous one.

Consider `C=C1C(=O)O[C@@H]2/C=C(/C)[C@@H](OC(C)=O)C/C=C(\C)C[C@@H](OC(=O)/C(=C\CO)CO)[C@@H]12`, for which the pIC50 was 4.26.

On to `C=C1C(=O)O[C@@H]2/C=C(\C)[C@@H](O)C/C=C(\C)C[C@@H](OC(=O)/C(C)=C/CO)[C@@H]12`, for which the pIC50 was 4.29.

In turn, `C=C1C(=O)O[C@@H]2/C=C(/C)[C@@H](OC(C)=O)C/C=C(\C)C[C@@H](OC(=O)/C(=C/CO)CO)[C@@H]12` gave a pIC50 of 5.11.

In turn, `C=C1C(=O)O[C@H]2[C@H]1[C@H](OC(=O)/C(=C/CO)CO)CC(=C)[C@@H]1CC(=O)C(C)[C@H]21` (stereo not given in full) showed a pIC50 of 4.91. Compared with the last compound, the pIC50 is 0.20 log units lower.

For the compound `C=C1C[C@@H](OC(=O)/C(=C/CO)CO)[C@H]2C(=C)C(=O)O[C@@H]2[C@H]2C(C)=C[C@@H](O)[C@@H]12`, the pIC50 was 4.37.

In turn, `C=C1C(=O)O[C@@H]2/C=C(/C)[C@@H](OC(=O)C(O)C(C)C)C/C=C(\C)C[C@@H](OC(=O)/C(=C/CO)CO)[C@@H]12` (stereo not given in full) gave a negative logarithm of the IC50 (pIC50) of 4.96.

The compound `C=C1C(=O)O[C@@H]2/C=C(/C)[C@@H](OC(C)=O)C/C=C(\C)C[C@@H](OC(=O)/C(C)=C/CO)[C@@H]12` gave a negative-log IC50 (pIC50) of 5.10. The pIC50 values of the last two compounds are within 0.2 log units of each other.

In turn, `COc1cc(CCCO)cc(O)c1OC` gave a pIC50 of 3.83.

Compound `C=C1C(=O)O[C@@H]2/C=C(\C)[C@@H](O)C/C=C(\C)C[C@@H](OC(=O)/C(=C/COC(=O)C(O)C(C)C)CO)[C@@H]12` (stereo not given in full) gave a pIC50 of 4.47.

The compound `C=C1C(=O)O[C@@H]2/C=C(\C)[C@@H](O)C/C=C(\C)C[C@@H](OC(=O)/C(=C/COC(=O)C(O)C(C)CC)CO)[C@@H]12` (stereo not given in full) gave a pIC50 of 4.37.

In turn, `C=C1C(=O)O[C@@H]2/C=C(/C)[C@@H](OC(=O)C(O)C(C)C)C/C=C(\C)C[C@@H](OC(=O)c3ccoc3)[C@@H]12` (stereo not given in full) gave a pIC50 of 5.41.

For `C=C1C(=O)O[C@H]2[C@H]1[C@H](OC(=O)/C(=C/COC(=O)C(O)C(C)C)CO)C[C@]1(C)[C@@H]2[C@H](C)C(=O)C[C@H]1O` (stereo not given in full), the negative logarithm of the IC50 (pIC50) is 4.40.

On to `C=C1C(=O)O[C@@H]2C3O[C@]3(C)CC/C=C(\C)CC[C@@H]12` (stereo not given in full), for which the negative logarithm of the IC50 (pIC50) is 5.14.

Take `C=C1C(=O)O[C@@H]2/C=C(\C)CC/C=C(\C)C[C@@H](OC(=O)/C(=C/CO)CO)[C@@H]12`: the negative logarithm of the IC50 (pIC50) is 4.81.

The compound `COc1ccc(-c2cc(=O)c3c(O)c(OC)c(O)cc3o2)cc1` [PECTOLINARIGENIN] showed a pIC50 of 4.69. This pIC50 and that of the compound before are within 0.2 log units of each other.

System in the next series: not listed separately
As to the kind of experiment: Selectivity index, ratio of IC50 for rat L6 cells to IC50 for Trypanosoma brucei rhodesiense STIB 900 bloodstream forms. The following applies: read-out: Ratio IC50. The series is classed as toxicity.
With `C=C1C(=O)O[C@@H]2/C=C(/C)[C@@H]3C/C=C(/C[C@@H](OC(=O)/C(=C/CO)CO)[C@@H]12)C[C@@](O)(C(C)C)C(=O)O3`, the selectivity ratio was determined as 4.1.

As for `C=C1C(=O)O[C@@H]2/C=C(/C)[C@@H](OC(C)=O)C/C=C(\C)C[C@@H](OC(=O)c3ccoc3)[C@@H]12`, the selectivity ratio was found to be 20.5.

As to `C=C1C(=O)O[C@@H]2/C=C(/C)[C@@H](O)C[C@H]3O[C@]3(C)C[C@@H](OC(=O)/C(=C/COC(=O)C(O)C(C)C)CO)[C@@H]12` (stereo not given in full), the selectivity ratio came to 15.8.

Consider `C=C1C(=O)O[C@@H]2/C=C(/C)[C@@H](OC(C)=O)C[C@H]3O[C@]3(C)C[C@@H](OC(=O)/C(=C/CO)CO)[C@@H]12`, for which the selectivity ratio turned out to be 15.8.

For `C=C1C(=O)O[C@@H]2/C=C(/C)[C@@H](OC(C)=O)C/C=C(\C)C[C@@H](OC(=O)C3=CC(O)OC3)[C@@H]12` (stereo not given in full), the selectivity ratio is 11.5.

Regarding `C=C1C(=O)O[C@@H]2/C=C(/C)[C@@H](OC(C)=O)C/C=C(\C)C[C@@H](OC(=O)/C(=C\CO)CO)[C@@H]12`, the selectivity ratio worked out at 31.1.

For `C=C1C(=O)O[C@@H]2/C=C(\C)[C@@H](O)C/C=C(\C)C[C@@H](OC(=O)/C(C)=C/CO)[C@@H]12`, the selectivity ratio came to 9.6.

With `C=C1C(=O)O[C@@H]2/C=C(/C)[C@@H](OC(C)=O)C/C=C(\C)C[C@@H](OC(=O)/C(=C/CO)CO)[C@@H]12`, the selectivity ratio came to 6.9.

Turning to `C=C1C(=O)O[C@H]2[C@H]1[C@H](OC(=O)/C(=C/CO)CO)CC(=C)[C@@H]1CC(=O)C(C)[C@H]21` (stereo not given in full), the selectivity ratio was determined as 19.2.

In the case of `C=C1C[C@@H](OC(=O)/C(=C/CO)CO)[C@H]2C(=C)C(=O)O[C@@H]2[C@H]2C(C)=C[C@@H](O)[C@@H]12`, the selectivity ratio was determined as 5.9.

Take `C=C1C(=O)O[C@@H]2/C=C(/C)[C@@H](OC(=O)C(O)C(C)C)C/C=C(\C)C[C@@H](OC(=O)/C(=C/CO)CO)[C@@H]12` (stereo not given in full): the selectivity ratio was determined as 13.4.

For the compound `C=C1C(=O)O[C@@H]2/C=C(/C)[C@@H](OC(C)=O)C/C=C(\C)C[C@@H](OC(=O)/C(C)=C/CO)[C@@H]12`, the selectivity ratio is 4.6.

`COc1cc(CCCO)cc(O)c1OC`: the selectivity ratio came to 15.2.

On to `C=C1C(=O)O[C@@H]2/C=C(\C)[C@@H](O)C/C=C(\C)C[C@@H](OC(=O)/C(=C/COC(=O)C(O)C(C)C)CO)[C@@H]12` (stereo not given in full), for which the selectivity ratio is 13.

Take `C=C1C(=O)O[C@@H]2/C=C(\C)[C@@H](O)C/C=C(\C)C[C@@H](OC(=O)/C(=C/COC(=O)C(O)C(C)CC)CO)[C@@H]12` (stereo not given in full): the selectivity ratio amounted to 10.5.

`C=C1C(=O)O[C@@H]2/C=C(/C)[C@@H](OC(=O)C(O)C(C)C)C/C=C(\C)C[C@@H](OC(=O)c3ccoc3)[C@@H]12` (stereo not given in full): the selectivity ratio came to 29.7.

As to `C=C1C(=O)O[C@H]2[C@H]1[C@H](OC(=O)/C(=C/COC(=O)C(O)C(C)C)CO)C[C@]1(C)[C@@H]2[C@H](C)C(=O)C[C@H]1O` (stereo not given in full), the selectivity ratio was determined as 14.6.

On to `C=C1C(=O)O[C@@H]2C3O[C@]3(C)CC/C=C(\C)CC[C@@H]12` (stereo not given in full), for which the selectivity ratio amounted to 18.6.

As to `C=C1C(=O)O[C@@H]2/C=C(\C)CC/C=C(\C)C[C@@H](OC(=O)/C(=C/CO)CO)[C@@H]12`, the selectivity ratio is 11.1.

In the case of `COc1ccc(-c2cc(=O)c3c(O)c(OC)c(O)cc3o2)cc1` [PECTOLINARIGENIN], the selectivity ratio came out at 3.3.

The next series deals with Trypanosoma brucei rhodesiense. In words: Antitrypanosomal activity against Trypanosoma brucei rhodesiense STIB 900 bloodstream forms after 72 hrs by alamar blue staining based fluorescence assay. The following applies: STIB 900, 72 h. Type of series: functional, organism-based.
In turn, `C=C1C(=O)O[C@@H]2/C=C(/C)[C@@H]3C/C=C(/C[C@@H](OC(=O)/C(=C/CO)CO)[C@@H]12)C[C@@](O)(C(C)C)C(=O)O3` showed a pIC50 of 6.05.

In turn, `C=C1C(=O)O[C@@H]2/C=C(/C)[C@@H](OC(C)=O)C/C=C(\C)C[C@@H](OC(=O)c3ccoc3)[C@@H]12` had a pIC50 of 7.00.

In the case of `C=C1C(=O)O[C@@H]2/C=C(/C)[C@@H](O)C[C@H]3O[C@]3(C)C[C@@H](OC(=O)/C(=C/COC(=O)C(O)C(C)C)CO)[C@@H]12` (stereo not given in full), the pIC50 is 6.04.

On to `C=C1C(=O)O[C@@H]2/C=C(/C)[C@@H](OC(C)=O)C[C@H]3O[C@]3(C)C[C@@H](OC(=O)/C(=C/CO)CO)[C@@H]12`, for which the pIC50 was 6.04.

Consider `C=C1C(=O)O[C@@H]2/C=C(/C)[C@@H](OC(C)=O)C/C=C(\C)C[C@@H](OC(=O)C3=CC(O)OC3)[C@@H]12` (stereo not given in full), for which the pIC50 is 6.46.

`C=C1C(=O)O[C@@H]2/C=C(/C)[C@@H](OC(C)=O)C/C=C(\C)C[C@@H](OC(=O)/C(=C\CO)CO)[C@@H]12` showed a pIC50 of 5.77.

As to `C=C1C(=O)O[C@@H]2/C=C(\C)[C@@H](O)C/C=C(\C)C[C@@H](OC(=O)/C(C)=C/CO)[C@@H]12`, the pIC50 was 5.27.

The compound `C=C1C(=O)O[C@@H]2/C=C(/C)[C@@H](OC(C)=O)C/C=C(\C)C[C@@H](OC(=O)/C(=C/CO)CO)[C@@H]12` gave a negative-log IC50 (pIC50) of 5.96.

On to `C=C1C(=O)O[C@H]2[C@H]1[C@H](OC(=O)/C(=C/CO)CO)CC(=C)[C@@H]1CC(=O)C(C)[C@H]21` (stereo not given in full), for which the pIC50 was 6.22.

For `C=C1C[C@@H](OC(=O)/C(=C/CO)CO)[C@H]2C(=C)C(=O)O[C@@H]2[C@H]2C(C)=C[C@@H](O)[C@@H]12`, the pIC50 was 5.14.

Compound `C=C1C(=O)O[C@@H]2/C=C(/C)[C@@H](OC(=O)C(O)C(C)C)C/C=C(\C)C[C@@H](OC(=O)/C(=C/CO)CO)[C@@H]12` (stereo not given in full) gave a negative-log IC50 (pIC50) of 6.09.

Take `C=C1C(=O)O[C@@H]2/C=C(/C)[C@@H](OC(C)=O)C/C=C(\C)C[C@@H](OC(=O)/C(C)=C/CO)[C@@H]12`: the pIC50 was 5.77. This pIC50 is 0.32 log units lower than that of the compound before.

The compound `COc1cc(CCCO)cc(O)c1OC` gave a pIC50 of 5.01.

The compound `C=C1C(=O)O[C@@H]2/C=C(\C)[C@@H](O)C/C=C(\C)C[C@@H](OC(=O)/C(=C/COC(=O)C(O)C(C)C)CO)[C@@H]12` (stereo not given in full) had a pIC50 of 5.59.

`C=C1C(=O)O[C@@H]2/C=C(\C)[C@@H](O)C/C=C(\C)C[C@@H](OC(=O)/C(=C/COC(=O)C(O)C(C)CC)CO)[C@@H]12` (stereo not given in full): the negative logarithm of the IC50 (pIC50) is 5.40.

`C=C1C(=O)O[C@@H]2/C=C(/C)[C@@H](OC(=O)C(O)C(C)C)C/C=C(\C)C[C@@H](OC(=O)c3ccoc3)[C@@H]12` (stereo not given in full) gave a pIC50 of 6.89.

In the case of `C=C1C(=O)O[C@H]2[C@H]1[C@H](OC(=O)/C(=C/COC(=O)C(O)C(C)C)CO)C[C@]1(C)[C@@H]2[C@H](C)C(=O)C[C@H]1O` (stereo not given in full), the pIC50 was 5.57.

Compound `C=C1C(=O)O[C@@H]2C3O[C@]3(C)CC/C=C(\C)CC[C@@H]12` (stereo not given in full) showed a pIC50 of 6.41.

Take `C=C1C(=O)O[C@@H]2/C=C(\C)CC/C=C(\C)C[C@@H](OC(=O)/C(=C/CO)CO)[C@@H]12`: the pIC50 is 5.85 to 5.92.

With `COc1ccc(-c2cc(=O)c3c(O)c(OC)c(O)cc3o2)cc1` [PECTOLINARIGENIN], the pIC50 is 5.21.
